Results on 19 molecules are retold here after patent US20240343727A1, “PYRIDAZINONE OR PYRIDINONE COMPOUNDS, PREPARATION METHODS AND USES THEREOF” (InventisBio Co., Ltd., priority 2021, published 2024).

Where two headings read alike, the source gives them in different places.

The test system of one assay is tumor. Particulars: according to the description in clinicaltrials.gov (NCT04053673); cited from earlier work.
Another assay concerns NCI-H1373 cells. Briefly: Inhibition of cancer cell growth in NCI-H1373 cells (Cell-titer Glo, 6 days). Format: cell-based. Particulars: read-out: H1373 Cell Proliferation IC50. How it is done: Biological Assay Example B: Inhibition of cancer cell growth in NCI-H1373 cells by PARP7 inhibitors
NCI-H1373 cells were cultured in RPMI 1640 medium supplemented with 10% fetal bovine serum, 100 U/mL penicillin and 100 ug/mL streptomycin in a 37° C., 5% CO2 incubator. Fifteen hundred cells were seeded into each well of 96-well plate in RPMI1640 medium containing 10% fetal bovine serum and incubated overnight. Serial diluted compounds for each well were added at a final DMSO concentration of 0.5% and a day zero plate was collected for analysis. Compounds were incubated with the cells for 6 days. Cell growth was assessed using Cell-titer Glo reagent (Promega #G^7572). The luminescence signal was collected on Tecan Spark plate reader. Cell growth is determined by correcting for the cell count on day zero. Inhibition rate is calculated with the formula of % inhibition=100*(DMSO control-compounds)/(DMSO control-Blank). Cell growth inhibition IC50 is calculated with the equation of Y-Bottom+ (Top-Bottom)/(1+10^((LogIC50−X) *Hill Slope)).

The next assay addresses T1, PARP7 (Homo sapiens, UniProt Q7Z3E1).
T1 sequence (Q7Z3E1 1-657): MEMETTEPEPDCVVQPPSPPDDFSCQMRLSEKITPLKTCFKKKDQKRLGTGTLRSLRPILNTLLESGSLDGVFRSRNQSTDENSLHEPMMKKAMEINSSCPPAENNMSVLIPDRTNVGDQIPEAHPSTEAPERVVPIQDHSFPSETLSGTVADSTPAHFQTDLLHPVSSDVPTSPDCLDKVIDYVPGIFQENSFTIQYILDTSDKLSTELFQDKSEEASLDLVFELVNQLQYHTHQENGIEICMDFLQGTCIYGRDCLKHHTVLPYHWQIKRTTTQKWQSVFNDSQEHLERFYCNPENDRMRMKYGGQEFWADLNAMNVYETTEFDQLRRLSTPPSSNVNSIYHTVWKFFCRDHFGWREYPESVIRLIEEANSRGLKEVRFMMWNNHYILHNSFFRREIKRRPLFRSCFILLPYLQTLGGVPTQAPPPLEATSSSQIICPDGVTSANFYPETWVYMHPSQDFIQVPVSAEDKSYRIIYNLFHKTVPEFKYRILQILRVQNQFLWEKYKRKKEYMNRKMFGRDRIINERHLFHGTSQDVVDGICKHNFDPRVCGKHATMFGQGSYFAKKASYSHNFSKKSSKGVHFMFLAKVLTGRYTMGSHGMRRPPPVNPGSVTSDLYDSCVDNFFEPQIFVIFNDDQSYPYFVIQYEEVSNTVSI
Briefly: PARP7 TR-FRET assay (binding, displacement of biotinylated Probe A). Particulars: 6 nM PARP7, 2 nM Probe A, 25° C., 30 min. In a few lines:
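His-tagged PARP7 at 6 nM was preincubated with compound and 2 nM biotinylated Probe A for 30 min at 25° C (HEPES pH 8.0, NaCl, BSA, DTT, Tween20). Europium-streptavidin/ULight-anti-His FRET was read as the 665/615 nm ratio after a further 30 min. IC50 was fitted from % inhibition normalised to vehicle and blank.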
On the technique in general: TR-FRET usually uses a lanthanide donor and a delayed reading to cut background.

Take `C[C@@H](COCCC(=O)N1CCN(c2ncc(C(F)(F)F)cn2)CC1)Nc1cn[nH]c(=O)c1C(F)(F)F` [RBN2397]: in the assay with tumor, the “tumor growth in animal studies” value is reported as “inhibit tumor growth”. With `O=C(C[C@@H]1CN(c2cc(C(F)(F)F)c(=O)[nH]n2)c2ccccc2O1)N1CCN(c2ncc(C(F)(F)F)cn2)CC1` [Compound 34], the IC50 in the assay on NCI-H1373 cells (Homo sapiens, NCI-H1373, 144 h) was less than 100 nM; on PARP7, less than 100 nM. As to `O=C(c1cc(Oc2n[nH]c(=O)c(C(F)(F)F)c2N2CC3(CCC3)C2)ccn1)N1CCN(c2cnc(C(F)(F)F)cn2)CC1` [Compound 272], the IC50 is less than 100 nM in the assay on NCI-H1373 cells (Homo sapiens, NCI-H1373, 144 h) and less than 100 nM on PARP7. `N#Cc1cnc(N2CCN(C(=O)CC3CN(c4cc(C(F)(F)F)c(=O)[nH]n4)c4cc(C(F)F)ccc4O3)CC2)nc1` (single isomer, unassigned) [Compound 138]: the IC50 in the assay on NCI-H1373 cells and at PARP7 was less than 100 nM each time. Turning to `N#Cc1cnc(N2CCN(C(=O)CC3CN(c4cc(C(F)(F)F)c(=O)[nH]n4)c4cc(C(F)F)ccc4O3)CC2)nc1` (single isomer, unassigned) [Compound 140], the IC50 in the assay with NCI-H1373 cells was greater than 1000 nM; at PARP7, less than 100 nM. `O=C(c1cccc(Oc2cc(C(F)(F)F)c(=O)[nH]n2)c1)N1CCN(c2ncc(C(F)(F)F)cn2)CC1` [Compound 16]: the IC50 is greater than 1000 nM in the assay with NCI-H1373 cells (Homo sapiens, NCI-H1373, 144 h) and less than 100 nM at PARP7. In the same order, the values of `C#Cc1ccc2c(c1)N(c1cc(C(F)(F)F)c(=O)[nH]n1)CC(CC(=O)N1CCN(c3ncc(C(F)(F)F)cn3)CC1)O2` (stereo not shown) [Compound 149] are less than 100 nM and less than 100 nM.

`N#Cc1ccc(N2CCN(C(=O)c3cccc(Oc4n[nH]c(=O)c(C(F)(F)F)c4N4CC5(CCCO5)C4)c3)CC2)nc1` [Compound 223]: the IC50 with NCI-H1373 cells (Homo sapiens, NCI-H1373, 144 h) was 100 to 1000 nM; on PARP7 it was less than 100 nM. As to `O=C(CC1CN(c2cc(C(F)(F)F)c(=O)[nH]n2)c2cc(F)ccc2O1)N1CCN(c2cnc(C(F)(F)F)cn2)CC1` (single isomer, unassigned) [Compound 291], the IC50 in the assay with NCI-H1373 cells (Homo sapiens, NCI-H1373, 144 h) is 100 to 1000 nM; at PARP7, less than 100 nM.

Consider `Cc1c(Oc2cccc(C(=O)N3CCN(c4ccc(C#N)cn4)CC3)c2)n[nH]c(=O)c1C(F)(F)F` [Compound 27], for which the IC50 is 100 to 1000 nM in the assay on NCI-H1373 cells (Homo sapiens, NCI-H1373, 144 h) and less than 100 nM on PARP7. Consider `Cc1c(Oc2ccc(Cl)c(C(=O)N3CCN(c4ncc(C(F)(F)F)cn4)CC3)c2)n[nH]c(=O)c1C(F)(F)F` [Compound 26], for which the IC50 in the assay on NCI-H1373 cells (Homo sapiens, NCI-H1373, 144 h) was greater than 1000 nM; at PARP7, less than 100 nM. The corresponding values for `C[C@@H]1CN(C(=O)c2cccc(Oc3n[nH]c(=O)c(C(F)(F)F)c3N3CC4(CCO4)C3)c2)CCN1c1ncc(C(F)(F)F)cn1` [Compound 252] are less than 100 nM and less than 100 nM. Regarding `N#Cc1ccc2c(c1)N(c1cc(C(F)(F)F)c(=O)[nH]n1)CC(CC(=O)N1CCN(c3ncc(C4CC4)cn3)CC1)O2` (single isomer, unassigned) [Compound 316], the IC50 in the assay on NCI-H1373 cells (Homo sapiens, NCI-H1373, 144 h) is less than 100 nM; on PARP7, less than 100 nM. In the case of `C[C@@H]1CN(C(=O)c2cncc(Oc3n[nH]c(=O)c(C(F)(F)F)c3N3CC4(C3)CC(F)(F)C4)c2)CCN1c1ncc(Cl)cn1` [Compound 321], the IC50 was less than 100 nM with NCI-H1373 cells (Homo sapiens, NCI-H1373, 144 h) and less than 100 nM on PARP7. As to `O=C(C[C@H]1CN(c2cc(C(F)(F)F)c(=O)[nH]n2)c2ccccc2O1)N1CCN(c2ncc(C(F)(F)F)cn2)CC1` [Compound 35], the IC50 with NCI-H1373 cells (Homo sapiens, NCI-H1373, 144 h) is greater than 1000 nM; at PARP7, 100 to 1000 nM. The corresponding values for `O=C(COC1CCNc2c1n[nH]c(=O)c2C(F)(F)F)N1CCN(c2ncc(C(F)(F)F)cn2)CC1` (racemic) [Compound 1] are 100 to 1000 nM and less than 100 nM. The corresponding values for `O=C(CC[C@@H]1CCCN1c1cc(C(F)(F)F)c(=O)[nH]n1)N1CCN(c2ncc(C(F)(F)F)cn2)CC1` [Compound 86] are less than 100 nM and less than 100 nM. The corresponding values for `COCc1ccc2c(c1)N(c1cc(C(F)(F)F)c(=O)[nH]n1)CC(CC(=O)N1CCN(c3ncc(C(F)(F)F)cn3)CC1)O2` (single isomer, unassigned) [Compound 266] are less than 100 nM and less than 100 nM.

As for `Cc1c(Oc2cc(C(=O)N3CCN(c4ncc(C(F)(F)F)cn4)CC3)ccc2F)n[nH]c(=O)c1C(F)(F)F` [Compound 63], the IC50 in the assay with NCI-H1373 cells (Homo sapiens, NCI-H1373, 144 h) is 100 to 1000 nM; on PARP7 it was less than 100 nM.
